Assay results as given in US10065990B2, “Cyclic peptide compound, and preparation method, pharmaceutical composition and use thereof” (HANGZHOU GUANYU BIO-MEDICAL CO., LTD, priority 2013, dated 2018).
Like-named read-outs stand apart in the source and are kept apart here.

Tests used:
[1] = target: T1, HDAC7 (Homo sapiens, UniProt Q8WUI4); experiment: HDAC biochemical activity measurement (fluorescent substrate deacetylation);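 also: fluorogenic deacetylation assay using acetyl-lysine substrate at 20 µM, enzyme and compound incubated 30 min at 37 °C, then developer added, fluorescence read at 360/460 nm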; details: HDAC7; 37° C. 30 minutes
T1 sequence (Q8WUI4 1-952): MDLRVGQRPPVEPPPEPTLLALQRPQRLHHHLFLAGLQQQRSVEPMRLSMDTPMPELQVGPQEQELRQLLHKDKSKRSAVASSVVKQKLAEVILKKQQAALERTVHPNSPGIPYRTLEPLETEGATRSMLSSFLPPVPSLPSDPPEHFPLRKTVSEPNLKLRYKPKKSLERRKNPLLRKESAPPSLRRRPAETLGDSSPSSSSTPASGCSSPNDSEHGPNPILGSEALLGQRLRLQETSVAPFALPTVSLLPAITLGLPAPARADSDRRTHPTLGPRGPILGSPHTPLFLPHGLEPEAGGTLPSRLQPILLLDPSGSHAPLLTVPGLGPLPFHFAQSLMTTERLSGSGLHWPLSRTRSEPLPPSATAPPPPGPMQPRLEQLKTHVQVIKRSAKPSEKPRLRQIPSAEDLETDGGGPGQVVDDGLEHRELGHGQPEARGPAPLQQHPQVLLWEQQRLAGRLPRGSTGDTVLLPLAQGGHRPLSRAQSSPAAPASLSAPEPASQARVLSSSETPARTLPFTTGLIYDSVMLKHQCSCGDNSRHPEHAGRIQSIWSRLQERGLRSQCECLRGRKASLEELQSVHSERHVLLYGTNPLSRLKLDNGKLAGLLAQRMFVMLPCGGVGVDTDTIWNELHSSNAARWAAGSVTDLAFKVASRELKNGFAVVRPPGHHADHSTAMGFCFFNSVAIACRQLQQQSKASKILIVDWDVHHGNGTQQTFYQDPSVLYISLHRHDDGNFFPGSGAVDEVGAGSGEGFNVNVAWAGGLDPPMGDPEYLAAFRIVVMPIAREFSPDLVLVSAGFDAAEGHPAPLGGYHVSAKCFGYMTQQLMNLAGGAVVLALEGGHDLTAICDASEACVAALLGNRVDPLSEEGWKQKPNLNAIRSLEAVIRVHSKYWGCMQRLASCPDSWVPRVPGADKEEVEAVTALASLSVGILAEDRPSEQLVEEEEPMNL
Protocol: The chemical activity of the compound is determined according to the degree of deacetylation inhibition of the HDAC enzyme. This experiment measured the degree of deacetylation related to tumor proliferation and metastasis of HDAC1, HDAC2, HDAC3, HDAC8, HDAC11 five subtypes HDAC enzymes. After the substrate containing an acetylated lysine side chain and HDAC enzyme are labeled with a fluorescent label, the fluorescent substrate is de acetyl. The fluorescent labeled substrate is cleaved by the enzyme, and the fluorescent substance is released, which generates 460 nm emission light under the excitation of 360 nm light.
HDAC substrate was diluted with reaction buffer to 200M (reaction concentration of 20M), the HDAC enzyme was diluted to the appropriate concentration, then added different concentrations of the test compounds and acted at 37° C. 30 minutes, and then added the same volume of 2-times concentration substrate developing solution (developer), incubated at room temperature for 15 minutes. Finally, the last reading measured with a microplate plate reader, excitation light was 360 nm, the emitted light was 460 nm, data processing software was Prime 4, and the results are shown in Table 1.

[2] = system: MDA-MB-231 (breast cancer cells); experiment: MTT cancer cell growth inhibition; type: cell-based; details: Homo sapiens, MDA-MB-231, 72 h, read-out: GI50 MDA-MB-231, MTT, 72 hours incubation, MDA-MB-231 cells
In short: (§1)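 Absorbance at 570 nm of DMSO-dissolved formazan, formed during a 4 h MTT incubation, served as the viability measure. Cells had been exposed 72 h to drug at 10^−5–10^−10 M final; GI50 was calculated from these readings.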

[3] = system: SGC-7901 (human gastric cancer cells); experiment: MTT cancer cell growth inhibition; type: cell-based; details: Homo sapiens, SGC-7901, 72 h, MTT, 72 hours incubation, SGC-7901 cells; read-out: GI50 SGC-7901
In short: as §1

[4] = system: Hela (human cervical cancer cells); experiment: MTT cancer cell growth inhibition; type: cell-based; details: Homo sapiens, HeLa, 72 h, MTT, 72 hours incubation, read-out: GI50 Hela
In short: as §1

[5] = system: PANC-1 (Pac-1, human pancreatic cancer cells); experiment: MTT cancer cell growth inhibition; type: cell-based; details: Homo sapiens, PANC-1, 72 h, MTT, 72 hours incubation, read-out: GI50 PAN
In short: as §1

[6] = system: K562 (human leukemia cells); experiment: MTT cancer cell growth inhibition; type: cell-based; details: Homo sapiens, K562, 72 h, MTT, 72 hours incubation, K562 cells; read-out: GI50 K562
In short: as §1

[7] = system: lncap (prostate cancer cells); experiment: MTT cancer cell growth inhibition; type: cell-based; details: Homo sapiens, LNCaP, 72 h, MTT, 72 hours incubation, read-out: GI50 lnca
In short: as §1

[8] = system: BGC-823 (human gastric cancer cells); experiment: MTT cancer cell growth inhibition; type: cell-based; details: Homo sapiens, BGC-823, 72 h, MTT, 72 hours incubation, read-out: GI50 BG
In short: as §1

[9] = system: KBM5-T315I (human chronic myelogenous leukemia); experiment: MTT cancer cell growth inhibition; type: cell-based; details: Homo sapiens, 72 h, MTT, 72 hours incubation, KBM5-T315I cells; read-out: GI50 KBM5-T315I
In short: as §1

[10] = system: MCF-7 (human breast cancer cells); experiment: MTT cancer cell growth inhibition; type: cell-based; details: Homo sapiens, MCF7, 72 h, 72 hours incubation, read-out: GI50 MCF
In short: as §1

[11] = system: U937 (human leukemia cells); experiment: MTT cancer cell growth inhibition; type: cell-based; details: Homo sapiens, U-937, 72 h, MTT, 72 hours incubation, read-out: GI50 U93
In short: as §1

[12] = system: HCC827 (human non-small cell lung cancer cells); experiment: MTT cancer cell growth inhibition; type: cell-based; details: Homo sapiens, HCC827, 72 h, MTT, 72 hours incubation, HCC827 cells; read-out: GI50 HCC827
In short: as §1

[13] = system: H1975 (non-small cell lung adenocarcinoma); experiment: MTT cancer cell growth inhibition; type: cell-based; details: Homo sapiens, NCI-H1975, 72 h, MTT, 72 hours incubation, H1975 cells; read-out: GI50 H1975
In short: as §1

[14] = system: MOLT-4 (human acute lymphoblastic leukemia cells); experiment: MTT cancer cell growth inhibition; type: cell-based; details: Homo sapiens, MOLT-4, 72 h, MTT, 72 hours incubation, read-out: GI50 Mol
In short: as §1

[15] = system: HT1080 (human fibrosarcoma cells); experiment: MTT cancer cell growth inhibition; type: cell-based; details: Homo sapiens, HT-1080, 72 h, MTT, 72 hours incubation, read-out: GI50 HT1
In short: as §1

[16] = system: DU145 (human prostate cancer cells); experiment: MTT cancer cell growth inhibition; type: cell-based; details: Homo sapiens, DU-145, 72 h, MTT, 72 hours incubation, read-out: GI50 Du1
In short: as §1

[17] = system: N-87 (human gastric cancer cells); experiment: MTT cancer cell growth inhibition; type: cell-based; details: Homo sapiens, 72 h, MTT, 72 hours incubation, N-87 cells; read-out: GI50 N-87
In short: as §1

[18] = system: Huh-7 (human hepatoma cells); experiment: MTT cancer cell growth inhibition; type: cell-based; details: Homo sapiens, Huh-7, 72 h, MTT, 72 hours incubation, Huh-7 cells; read-out: GI50 Huh-7
In short: as §1

[19] = system: A549 (human lung cancer cells); experiment: MTT cancer cell growth inhibition; type: cell-based; details: Homo sapiens, A549, 72 h, MTT, 72 hours incubation, read-out: GI50 A54
In short: as §1

[20] = system: Bel-7402 (human hepatoma cells); experiment: MTT cancer cell growth inhibition; type: cell-based; details: Homo sapiens, Bel-7402, 72 h, MTT, 72 hours incubation, Bel-7402 cells; read-out: GI50 Bel-7402
In short: as §1

[21] = system: KBM-5 (human chronic myelogenous leukemia); experiment: MTT cancer cell growth inhibition; type: cell-based; details: Homo sapiens, KBM5, 72 h, MTT, 72 hours incubation, KBM-5 cells; read-out: GI50 KBM-5
In short: as §1

| SMILES | IC50 HDAC7 [1] | GI50 [2] [nM] | GI50 [3] [nM] | GI50 [6] [nM] | GI50 [9] [nM] | GI50 [12] [nM] | GI50 [13] [nM] | GI50 [17] [nM] | GI50 [18] [nM] | GI50 [20] [nM] | GI50 [21] [nM] | GI50 ([4]; Hela cells) [nM] | GI50 ([5]; PANC-1 cells) [nM] | GI50 ([7]; lncap cells) [nM] | GI50 ([8]; BGC-823 cells) [nM] | GI50 ([10]; MCF-7 cells) [nM] | GI50 ([11]; U937 cells) [nM] | GI50 ([14]; MOLT-4 cells) [nM] | GI50 ([15]; HT1080 cells) [nM] | GI50 ([16]; DU145 cells) [nM] | other results |
| --- | --- | --- | --- | --- | --- | --- | --- | --- | --- | --- | --- | --- | --- | --- | --- | --- | --- | --- | --- | --- | --- |
| C/C=C1\NC(=O)c2cc(F)cc(n2)CNC(=O)C[C@@H](/C=C/CCSC(=O)CCCCCC)OC(=O)[C@H](C(C)C)NC1=O [Example 34] | no activity | 49 | 49 | 53 | 53 | 94 | 34 | 67 | 49 | 94 | 74 |  |  |  |  |  |  |  |  |  | GI50 [4]: 70 nM; GI50 [5]: 90 nM; GI50 [7]: 40 nM; GI50 [8]: 60 nM; GI50 [10]: 50 nM; GI50 [11]: 30 nM; GI50 [14]: 40 nM; GI50 [15]: 90 nM; GI50 [16]: 50 nM; GI50 [19]: 40 nM |
| C=C1NC(=O)c2nc(ccc2F)CNC(=O)C[C@@H](/C=C/CCSC(C)=O)OC(=O)[C@H](C)NC1=O [Compound 90] | no activity | 49 | 36 | 53 | 24 | 94 | 34 | 34 | 49 | 94 | 83 |  |  |  |  |  |  |  |  |  | GI50 [4]: 80 nM; GI50 [5]: 90 nM; GI50 [7]: 40 nM; GI50 [8]: 30 nM; GI50 [10]: 20 nM; GI50 [11]: 30 nM; GI50 [14]: 40 nM; GI50 [15]: 90 nM; GI50 [16]: 50 nM; GI50 [19]: 30 nM |
| C/C=C1\NC(=O)c2nc(ccc2F)CNC(=O)C[C@@H](/C=C/CCS)OC(=O)[C@H](Cc2ccc(O)cc2)NC1=O [Compound 128] | no activity | 55 | 23 | 73 | 53 | 39 | 23 | 35 | 49 | 53 | 41 |  |  |  |  |  |  |  |  |  | GI50 [4]: 40 nM; GI50 [5]: 130 nM; GI50 [7]: 100 nM; GI50 [8]: 70 nM; GI50 [10]: 50 nM; GI50 [11]: 50 nM; GI50 [14]: 20 nM; GI50 [15]: 70 nM; GI50 [16]: 50 nM; GI50 [19]: 30 nM |

Now those with a lower GI50 [2], led by results:

| IC50 HDAC7 [1] | GI50 [2] [nM] | GI50 [3] [nM] | GI50 [6] [nM] | GI50 [9] [nM] | GI50 [12] [nM] | GI50 [13] [nM] | GI50 [17] [nM] | GI50 [18] [nM] | GI50 [20] [nM] | GI50 [21] [nM] | GI50 ([4]; Hela cells) [nM] | GI50 ([5]; PANC-1 cells) [nM] | GI50 ([7]; lncap cells) [nM] | GI50 ([8]; BGC-823 cells) [nM] | GI50 ([10]; MCF-7 cells) [nM] | GI50 ([11]; U937 cells) [nM] | GI50 ([14]; MOLT-4 cells) [nM] | GI50 ([15]; HT1080 cells) [nM] | GI50 ([16]; DU145 cells) [nM] | SMILES | other results |
| --- | --- | --- | --- | --- | --- | --- | --- | --- | --- | --- | --- | --- | --- | --- | --- | --- | --- | --- | --- | --- | --- |
| no activity | 17 | 81 | 42 | 26 | 16 | 71 | 49 | 42 | 36 | 28 | 50 | 40 | 50 | 90 | 40 | 50 | 50 | 40 | 40 | C/C=C1\NC(=O)c2cc(SC)cc(n2)CNC(=O)C[C@@H](/C=C/CCSC(=O)CCC)OC(=O)[C@H](C(C)C)NC1=O [Compound 160] | GI50 ([19]; A549 cells): 30 nM |
| no activity | 45 | 28 | 83 | 33 | 26 | 57 | 46 | 53 | 55 | 83 | 30 | 30 | 60 | 30 | 20 | 80 | 50 | 80 | 30 | C/C=C1\NC(=O)c2nc(ccc2SC)CNC(=O)C[C@@H](/C=C/CCSC(C)=O)OC(=O)[C@@H](C)NC1=O [Compound 220] | GI50 ([19]; A549 cells): 40 nM |
| no activity | 39 | 43 | 39 | 21 | 89 | 63 | 28 | 16 | 52 | 36 | 70 | 50 | 30 | 40 | 50 | 40 | 30 | 20 | 100 | C/C=C1\NC(=O)c2nc(ccc2SC)CNC(=O)C[C@@H](/C=C/CCSC(C)=O)OC(=O)[C@H](Cc2ccccc2)NC1=O [Compound 186] | GI50 ([19]; A549 cells): 30 nM |
| no activity | 18 | 26 | 76 | 49 | 67 | 35 | 56 | 26 | 17 | 18 | 80 | 30 | 30 | 50 | 30 | 60 | 40 | 70 | 40 | CSc1cc2nc(c1)C(=O)NC(=C(C)C)C(=O)N[C@@H](C(C)C)C(=O)O[C@H](/C=C/CCSC(C)=O)CC(=O)NC2 [Compound 208] | GI50 ([19]; A549 cells): 50 nM |
